# From patent US20160256457A1, “METHODS FOR TREATING OR PREVENTING ACUTE VASCULAR LEAK” (Beth Israel Deaconess Medical Center, Inc., priority 2014, published 2016)
# “Also recorded” adds a separate entry of the source.
# Tests used:
# [1] = test system: Primary human dermal microvascular endothelial cells; assay: ECIS steady-state barrier function of confluent endothelial monolayers; format: cell-based; conditions: for endothelial barrier function (ECIS) compared to benchmark agents / endothelial barrier function (ECIS) compared to other Src inhibitors: bosutinib 300 nM; for endothelial barrier function (ECIS) compared to benchmark agents: HGF 100 ng/ml (1200 nM), APC 500 nM, monitored ~18 hours, FIG. 6; for endothelial barrier function (ECIS) compared to other Src inhibitors: dasatinib 300 nM, PP2 10 μM, monitored ~22 hours, FIG. 7
# Description: (§1) Primary human dermal microvascular endothelial cells were grown to confluence. […] Data are mean±SEM of three independent experiments.
# as §1, §1
# FIP rats = assay: Polymicrobial sepsis model (feces-induced peritonitis; FIP), intravital microscopy of the hindlimb; format: in vivo, rat
# Description: Disease onset was initiated by tail vein injection of a solution of saline and rat feces. […] Microvascular parameters were measured through intravital microscopy of the hindlimb at baseline, 3 hr and 5 hr post FIP onset. […] Data are representative of two separate pilot experiments.
# Src = Src (Homo sapiens, UniProt P12931); conditions: cited from earlier work
# Src, sequence (P12931 whole entry, species assumed): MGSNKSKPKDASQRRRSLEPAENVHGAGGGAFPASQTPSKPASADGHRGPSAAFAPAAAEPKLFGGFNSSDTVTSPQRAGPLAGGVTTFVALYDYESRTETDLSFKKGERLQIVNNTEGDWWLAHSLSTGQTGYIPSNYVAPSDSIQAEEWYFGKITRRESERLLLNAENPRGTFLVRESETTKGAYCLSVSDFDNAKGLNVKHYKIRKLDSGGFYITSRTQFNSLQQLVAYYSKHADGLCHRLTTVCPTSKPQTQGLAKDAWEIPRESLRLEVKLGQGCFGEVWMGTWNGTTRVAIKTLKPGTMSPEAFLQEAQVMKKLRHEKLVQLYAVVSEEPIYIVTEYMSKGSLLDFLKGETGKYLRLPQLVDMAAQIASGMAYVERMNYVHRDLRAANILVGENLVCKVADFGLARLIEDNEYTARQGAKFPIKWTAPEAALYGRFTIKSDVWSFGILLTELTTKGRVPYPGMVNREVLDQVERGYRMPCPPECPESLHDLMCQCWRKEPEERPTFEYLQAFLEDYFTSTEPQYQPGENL
# [2] = test system: Primary human dermal microvascular endothelial monolayers; assay: Confocal imaging of actin and VE-cadherin junctions during permeability challenge; format: cell-based
# Description: Samples were fixed and stained for actin (i) and the junctional marker VE-cadherin (ii) before imaging by confocal microscopy. To assess quality of endothelial junctions (see B), image thresholding was applied to the VE-cadherin images to delineate the junctions (line traces in [iii]). […] Scale bar represents 10 μm.
# Primary human dermal microvascular endothelial monolayers were challenged with either Thrombin (Thr) or Histamine (His) as described above for FIG. 5A. Quantitative analysis of (i) total junctional area per field and (ii) VE-cadherin intensity within junctions were performed to assess maintenance of junctional integrity. […] Data are mean±SEM of three independent experiments.
# [3] = test system: Primary human dermal microvascular endothelial cells; assay: Thrombin- and histamine-induced vascular permeability assays (ECIS), pretreatment; format: cell-based; conditions: for protection to histamine challenge / protection to thrombin challenge: 300 nM for 30 min; for protection to histamine challenge: then histamine 300 μM, FIG. 3B; for protection to thrombin challenge: then thrombin 2.5 U/ml, FIG. 3A
# Description: For all assays, primary human dermal microvascular endothelial cells were grown to confluence. Steady state barrier function was monitored by ECIS and normalized to a value of 1. […] Data are mean±SEM of three independent experiments.
# [4] = test system: Primary bovine aortic endothelial cells; assay: ECIS barrier function, dose response over 72 hours; format: cell-based; conditions: FIG. 2; for vascular barrier function (ECIS resistance, normalized to 1): single doses, 10 nM to 3 μM, monitored 72 hours
# Description: Primary bovine aortic endothelial cells were grown to confluence. Steady state barrier function was monitored by ECIS for 24 hours and normalized to a value of 1. […] Data are mean±SEM of three independent experiments.
# [5] = imaging-based analysis, FIGS. 5A and 5B
compound,measurement,setting,value
COc1cc(Nc2c(C#N)cnc3cc(OCCCN4CCN(C)CC4)c(OC)cc23)c(Cl)cc1Cl [bosutinib],endothelial barrier function (ECIS) compared to benchmark agents,[1],exhibits unprecedented efficacy and duration of action
same,endothelial barrier function (ECIS) compared to benchmark agents,[1]; listed as Bosutinib,significant and sustained increase in barrier function
same,endothelial barrier function (ECIS) compared to other Src inhibitors,[1],sustained increase in barrier function
same,"vascular barrier function (ECIS resistance, normalized to 1)","[1]; single 300 nM dose, monitored 3 hours, FIG. 1",profoundly enhanced base-line barrier properties; also recorded: increases in resistance
same,percent oxygen saturation,"FIP rats; 10 mg/kg loading dose at 30 min, 5 mg/kg every two hours, tail vein, FIG. 8C","effectively preserved; also recorded: similarly maintained in bosutinib-treated, but not control, FIP rats"
same,capillary diameter,"FIP rats; 10 mg/kg loading dose at 30 min, 5 mg/kg every two hours, tail vein, FIG. 8D",unaltered; also recorded: unchanged in both control and bosutinib rats
same,red blood cell (RBC) velocity,"FIP rats; 10 mg/kg loading dose at 30 min, 5 mg/kg every two hours, tail vein, baseline, 3 hr and 5 hr post FIP onset, FIG. 8A","rapidly decline following sepsis onset in control rats, but not in bosutinib-treated rats"
same,RBC supply rate,"FIP rats; 10 mg/kg loading dose at 30 min, 5 mg/kg every two hours, tail vein, baseline, 3 hr and 5 hr post FIP onset, FIG. 8B","rapidly decline following sepsis onset in control rats, but not in bosutinib-treated rats"
same,microvascular flow,"FIP rats; pilot studies, septic rats, FIGS. 8A and 8B",effectively preserved
same,efficacy against Src kinase,Src,low nanomolar range
same,endothelial junction continuity and gap formation,"[2]; 300 nM 30 min pretreatment, thrombin 2.5 U/ml or histamine 300 μM for 30 min, FIG. 5A",maintains continuous junctions and cortical actin during challenge
same,VE-cadherin and cortical actin at the intercellular junctions,[2]; [5],increase in VE-cadherin and cortical actin at the intercellular junctions
same,actin stress fibers in endothelial cells,[2]; [5],decrease in actin stress fibers
same,total junctional area per field,"[2]; thrombin or histamine challenge, FIG. 5B",significantly increased junctional area compared to vehicle controls
same,protection to histamine challenge,[3],100%
same,protection to thrombin challenge,[3],~50%
same,protection against pro-leak stimuli by pretreatment,"[3]; thrombin, histamine, Ang-II and TNF-α",conferred profound protection against a range of pro-leak stimuli
same,duration of sustained barrier enhancement,[4]; longest experiments conducted thus far,> 72 h
same,"vascular barrier function (ECIS resistance, normalized to 1)",[4],"sustained, dose-dependent increase in vascular barrier function"
same,"vascular barrier function (ECIS resistance, normalized to 1)",[4]; listed as Bosutinib,sustained barrier enhancement effects in a dose-dependent manner
"CC(C)(C)n1nc(-c2ccc(Cl)cc2)c2c(N)ncnc21 [PP2, 3-(4-chlorophenyl)-1-(1,1-dimethylethyl)-1H-pyr-azolo[3,4-d]pyrimidin-4-amine]",endothelial barrier function (ECIS) compared to other Src inhibitors,[1],"greatly reduced, endothelial barrier function; also recorded: sustained decreases in barrier function"
activated protein C [APC],endothelial barrier function (ECIS) compared to benchmark agents,[1],increase in barrier function that was relatively minor in both magnitude and duration
hepatocyte growth factor [HGF],endothelial barrier function (ECIS) compared to benchmark agents,[1],"initially promoted a similar increase, which was rapidly reversed after ˜20 minutes leading ultimately to a sustained decrease in barrier function"
"Cc1ccc(NC(=O)c2ccc(CN3CCN(C)CC3)cc2)cc1Nc1nccc(-c2cccnc2)n1 [imatinib, Imatinib]",protection to histamine challenge,[3],5-10%
same,protection to thrombin challenge,[3],5-10%
